≈ marks a conversion by molar mass, not a printed value.
Experiments:
[1] = assay type: physicochemical; conditions: pH 7
[2] = pH 7
[3] = physchem; conditions: pH 7

SMILES	[θ]222, Benign [1]	also measured
CC[C@H](C)[C@H](NC(C)=O)C(=O)N[C@@H](CCC(N)=O)C(=O)N[C@@H](CCC(=O)O)C(=O)N[C@@H](CO)C(=O)N[C@@H](CC(C)C)C(=O)N[C@H](C(=O)N[C@H](C(=O)N[C@H](C(=O)N[C@@H](CO)C(=O)N[C@H](C(=O)N[C@@H](C)C(=O)N[C@@H](CC(C)C)C(=O)NCC(=O)N[C@@H](CCCCN)C(=O)N[C@@H](CC(C)C)C(=O)N[C@@H](CCC(N)=O)C(=O)N[C@@H](CC(=O)O)C(=O)N[C@H](C(=O)N[C@H](C(=O)N[C@@H](CC(N)=O)C(=O)N[C@@H](CCC(N)=O)C(=O)N[C@@H](CC(N)=O)C(=O)N[C@@H](C)C(=O)N[C@@H](CCC(N)=O)C(=O)N[C@@H](C)C(=O)N[C@@H](CC(C)C)C(=O)N[C@@H](CC(N)=O)C(=O)N[C@H](C(=O)N[C@@H](CC(C)C)C(=O)N[C@H](C(=O)N[C@@H](CCCCN)C(=O)N[C@@H](CCC(N)=O)C(=O)N[C@@H](CC(C)C)C(=O)N[C@@H](CO)C(=O)N[C@@H](CO)C(N)=O)C(C)C)[C@@H](C)O)C(C)C)C(C)C)[C@@H](C)O)[C@@H](C)O)[C@@H](C)O)[C@@H](C)O [HR-N10]	−3,600 degrees · cm^2 · dmol^−1	–
CC[C@H](C)[C@H](NC(=O)[C@H](C)NC(=O)[C@H](CCCCN)NC(=O)[C@H](CC(N)=O)NC(=O)[C@H](Cc1ccccc1)NC(C)=O)C(=O)N[C@@H](CO)C(=O)N[C@@H](CCC(N)=O)C(=O)N[C@H](C(=O)N[C@@H](CCC(N)=O)C(=O)N[C@@H](CCC(=O)O)C(=O)N[C@@H](CO)C(=O)N[C@@H](CC(C)C)C(=O)N[C@H](C(=O)N[C@H](C(=O)N[C@H](C(=O)N[C@@H](CO)C(=O)N[C@H](C(=O)N[C@@H](C)C(=O)N[C@@H](CC(C)C)C(=O)NCC(=O)N[C@@H](CCCCN)C(=O)N[C@@H](CC(C)C)C(=O)N[C@@H](CCC(N)=O)C(=O)N[C@@H](CC(=O)O)C(=O)N[C@H](C(=O)N[C@H](C(=O)N[C@@H](CC(N)=O)C(=O)N[C@@H](CCC(N)=O)C(=O)N[C@@H](CC(N)=O)C(=O)N[C@@H](C)C(=O)N[C@@H](CCC(N)=O)C(=O)N[C@@H](C)C(=O)N[C@@H](CC(C)C)C(=O)N[C@@H](CC(N)=O)C(=O)N[C@H](C(N)=O)[C@@H](C)O)C(C)C)C(C)C)[C@@H](C)O)[C@@H](C)O)[C@@H](C)O)[C@@H](C)O)[C@@H](C)CC [HR-N9]	−2,800 degrees · cm^2 · dmol^−1	–
CC[C@H](C)[C@H](NC(=O)[C@H](C)NC(=O)CNC(=O)[C@H](Cc1ccccc1)NC(=O)[C@H](CC(N)=O)NC(=O)[C@H](CO)NC(=O)[C@H](CO)NC(=O)[C@H](CC(C)C)NC(=O)[C@H](CCC(N)=O)NC(=O)[C@H](CCCCN)NC(=O)[C@@H](NC(=O)[C@H](CC(C)C)NC(=O)[C@@H](NC(=O)[C@H](CC(N)=O)NC(=O)[C@H](CC(C)C)NC(=O)[C@H](C)NC(=O)[C@H](CCC(N)=O)NC(=O)[C@H](C)NC(=O)[C@H](CC(N)=O)NC(=O)[C@H](CCC(N)=O)NC(=O)[C@H](CC(N)=O)NC(=O)[C@@H](NC(=O)[C@@H](NC(=O)[C@H](CC(=O)O)NC(=O)[C@H](CCC(N)=O)NC(=O)[C@H](CC(C)C)NC(=O)[C@H](CCCCN)NC(=O)CNC(=O)[C@H](CC(C)C)NC(=O)[C@H](C)NC(=O)[C@@H](NC(=O)[C@H](CO)NC(=O)[C@@H](NC(C)=O)[C@@H](C)O)[C@@H](C)O)C(C)C)C(C)C)[C@@H](C)O)C(C)C)C(=O)N[C@@H](CO)C(=O)N[C@@H](CO)C(N)=O [HR-N11]	−3,200 degrees · cm^2 · dmol^−1	–
CC[C@H](C)[C@H](NC(=O)CNC(=O)[C@H](CC(N)=O)NC(=O)[C@H](Cc1ccccc1)NC(C)=O)C(=O)NCC(=O)N[C@H](C(=O)N[C@H](C(=O)N[C@@H](CCC(N)=O)C(=O)N[C@@H](CC(N)=O)C(=O)N[C@H](C(=O)N[C@@H](CC(C)C)C(=O)N[C@@H](Cc1ccc(O)cc1)C(=O)N[C@@H](CCC(=O)O)C(=O)N[C@@H](CC(N)=O)C(=O)N[C@@H](CCC(N)=O)C(=O)N[C@@H](CCCCN)C(=O)N[C@@H](CCC(N)=O)C(=O)N[C@H](C(=O)N[C@@H](C)C(=O)N[C@@H](CC(N)=O)C(=O)N[C@@H](CCC(N)=O)C(=O)N[C@@H](Cc1ccccc1)C(=O)N[C@@H](CC(N)=O)C(=O)N[C@@H](CCCCN)C(=O)N[C@@H](C)C(=O)N[C@H](C(=O)N[C@@H](CO)C(=O)N[C@@H](CCC(N)=O)C(=O)N[C@H](C(=O)N[C@@H](CCC(N)=O)C(=O)N[C@@H](CCC(=O)O)C(=O)N[C@@H](CO)C(=O)N[C@@H](CC(C)C)C(=O)N[C@H](C(=O)N[C@H](C(N)=O)[C@@H](C)O)[C@@H](C)O)[C@@H](C)CC)[C@@H](C)CC)[C@@H](C)CC)C(C)C)[C@@H](C)O)C(C)C [HR-N6]	−3,300 degrees · cm^2 · dmol^−1	–
CC[C@H](C)[C@H](NC(=O)[C@H](CCC(N)=O)NC(=O)[C@H](CO)NC(=O)[C@@H](NC(=O)[C@H](C)NC(=O)[C@H](CCCCN)NC(=O)[C@H](CC(N)=O)NC(=O)[C@H](Cc1ccccc1)NC(=O)[C@H](CCC(N)=O)NC(=O)[C@H](CC(N)=O)NC(=O)[C@H](C)NC(=O)[C@@H](NC(=O)[C@H](CCC(N)=O)NC(=O)[C@H](CCCCN)NC(=O)[C@H](CCC(N)=O)NC(=O)[C@H](CC(N)=O)NC(=O)[C@H](CCC(=O)O)NC(=O)[C@H](Cc1ccc(O)cc1)NC(=O)[C@H](CC(C)C)NC(=O)[C@@H](NC(=O)[C@H](CC(N)=O)NC(=O)[C@H](CCC(N)=O)NC(=O)[C@@H](NC(=O)[C@@H](NC(=O)CNC(=O)[C@@H](NC(=O)CNC(=O)[C@H](CC(N)=O)NC(=O)[C@H](Cc1ccccc1)NC(=O)[C@H](CCCNC(=N)N)NC(=O)[C@H](Cc1ccc(O)cc1)NC(=O)[C@H](C)NC(=O)[C@H](CCSC)NC(=O)[C@H](CCC(N)=O)NC(=O)[C@H](CCSC)NC(C)=O)[C@@H](C)CC)C(C)C)[C@@H](C)O)C(C)C)[C@@H](C)CC)[C@@H](C)CC)C(N)=O [HR-N5]	−4,300 degrees · cm^2 · dmol^−1	No. Helical Residues, 50% TFE [1]: 24; [θ]222, 50% TFE [1]: −24,200 degrees · cm^2 · dmol^−1; solubility (in words) [2]: largely insoluble; solubility [3]: 15 µM (≈ 61.5 µg/mL)
CC[C@H](C)[C@H](NC(=O)[C@H](C)NC(=O)[C@H](CCCCN)NC(=O)[C@H](CC(N)=O)NC(=O)[C@H](Cc1ccccc1)NC(=O)[C@H](CCC(N)=O)NC(=O)[C@H](CC(N)=O)NC(=O)[C@H](C)NC(=O)[C@@H](NC(=O)[C@H](CCC(N)=O)NC(=O)[C@H](CCCCN)NC(=O)[C@H](CCC(N)=O)NC(C)=O)[C@@H](C)CC)C(=O)N[C@@H](CO)C(=O)N[C@@H](CCC(N)=O)C(=O)N[C@H](C(=O)N[C@@H](CCC(N)=O)C(=O)N[C@@H](CCC(=O)O)C(=O)N[C@@H](CO)C(=O)N[C@@H](CC(C)C)C(=O)N[C@H](C(=O)N[C@H](C(=O)N[C@H](C(=O)N[C@@H](CO)C(=O)N[C@H](C(=O)N[C@@H](C)C(=O)N[C@@H](CC(C)C)C(=O)NCC(=O)N[C@@H](CCCCN)C(=O)N[C@@H](CC(C)C)C(=O)N[C@@H](CCC(N)=O)C(=O)N[C@@H](CC(=O)O)C(=O)N[C@H](C(=O)N[C@H](C(=O)N[C@@H](CC(N)=O)C(=O)N[C@@H](CCC(N)=O)C(N)=O)C(C)C)C(C)C)[C@@H](C)O)[C@@H](C)O)[C@@H](C)O)[C@@H](C)O)[C@@H](C)CC [HR-N8]	−2,500 degrees · cm^2 · dmol^−1	–
CC[C@H](C)[C@H](NC(=O)[C@H](C)NC(=O)[C@H](CCCCN)NC(=O)[C@H](CC(N)=O)NC(=O)[C@H](Cc1ccccc1)NC(=O)[C@H](CCC(N)=O)NC(=O)[C@H](CC(N)=O)NC(=O)[C@H](C)NC(=O)[C@@H](NC(=O)[C@H](CCC(N)=O)NC(=O)[C@H](CCCCN)NC(=O)[C@H](CCC(N)=O)NC(=O)[C@H](CC(N)=O)NC(=O)[C@H](CCC(=O)O)NC(=O)[C@H](Cc1ccc(O)cc1)NC(=O)[C@H](CC(C)C)NC(=O)[C@@H](NC(=O)[C@H](CC(N)=O)NC(=O)[C@H](CCC(N)=O)NC(C)=O)C(C)C)[C@@H](C)CC)C(=O)N[C@@H](CO)C(=O)N[C@@H](CCC(N)=O)C(=O)N[C@H](C(=O)N[C@@H](CCC(N)=O)C(=O)N[C@@H](CCC(=O)O)C(=O)N[C@@H](CO)C(=O)N[C@@H](CC(C)C)C(=O)N[C@H](C(=O)N[C@H](C(=O)N[C@H](C(=O)N[C@@H](CO)C(=O)N[C@H](C(=O)N[C@@H](C)C(=O)N[C@@H](CC(C)C)C(=O)NCC(=O)N[C@@H](CCCCN)C(N)=O)[C@@H](C)O)[C@@H](C)O)[C@@H](C)O)[C@@H](C)O)[C@@H](C)CC [HR-N7]	−2,800 degrees · cm^2 · dmol^−1	–
